Assays:
[1] = target: T1, cellodextrin phosphorylase (CDP) (Acetivibrio thermocellus, UniProt Q93HT8); experiment: capillary electrophoresis competition assay of glucan polymerization; format: biochemical
T1 construct: gene cdp-ym4

[2] = target: T1, cellodextrin phosphorylase (CDP); experiment: X-ray crystallography, […] Å; format: binding
[3] = substrate: OC[C@H]1O[C@@H](Oc2ccccc2)[C@H](O)[C@@H](O)[C@@H]1O; experiment: phosphate release assay, Michaelis-Menten fit; format: biochemical, Acetivibrio thermocellus; settings: acceptor, synthetic direction, 10 mM Glc-1-P, HEPES 50 mM pH 7.5, 21 °C

OC1OC[C@@H](O[C@@H]2OC[C@@H](O[C@@H]3OC[C@@H](O)[C@H](O)[C@H]3O)[C@H](O)[C@H]2O)[C@H](O)[C@H]1O (stereo partly drawn) [(β-1→4-Xyl)3]
capillary electrophoresis competition assay of glucan polymerization ([1]; 10 mM xylotriose vs 13.5 μM (β-1→4-Glc)6-APTS, 10 mM Glc-1-P, HEPES 50 mM pH 7.5, 40 °C, acceptor competition): suggesting binding of xylotriose to the active site of the enzyme

OC[C@H]1O[C@@H](O[C@H]2[C@H](O)[C@@H](O)[C@H](O[C@H]3[C@H](O)[C@@H](O)[C@H](O[C@H]4[C@H](O)[C@@H](O)C(O)O[C@@H]4CO)O[C@@H]3CO)O[C@@H]2CO)[C@H](O)[C@@H](O)[C@@H]1O (stereo partly drawn) [(β-1→4-Glc)4]
X-ray crystallography, 3.0 Å ([2]; crystal soaked with 10 mM cellohexaose, density modelled as cellotetraose, with phosphate, active site subsites −1 to +3): additional electron density in the active site cleft, which was interpreted as a cellotetraose molecule

N[C@H]1[C@H](O[C@H]2[C@H](O)[C@@H](O)[C@H](O[C@H]3[C@H](O)[C@@H](O)C(O)O[C@@H]3CO)O[C@@H]2CO)O[C@H](CO)[C@@H](O)[C@@H]1O (stereo partly drawn) [(β-1→4-GlcN(Glc)2)]
capillary electrophoresis competition assay of glucan polymerization ([1]; 5 mM trisaccharide vs 0.5 mM (β-1→4-Glc)3-APTS, 50 mM Glc-1-P, HEPES 50 mM pH 7.6, 40 °C, acceptor competition, also an acceptor substrate): the average extension of (β-1→4-Glc)3-APTS reduced substantially

O=P(O)(O)O[C@H]1O[C@H](CO)[C@@H](O)[C@H](O)[C@@H]1O [Man-1-P]
capillary electrophoresis competition assay of glucan polymerization ([1]; 10 mM Man-1-P vs 1 mM Glc-1-P and 2 μM (β-1→4-Glc)6-APTS, HEPES 50 mM pH 7.5, 40 °C, competitive with donor): Man-1-P caused a great decrease in glucan oligomer length

O=P(O)(O)O [phosphate]
X-ray crystallography, 3.0 Å ([2]; crystal grown with 10 mM phosphate buffer, active site, adjacent to the glucan): interpreted as a cellotetraose molecule with an adjacent phosphate ion

B1: cellodextrin phosphorylase (CDP) (Acetivibrio thermocellus) (protein)
chain: MITKVTARNNKITPVELLNQKFGNKINLGNFADAVFTDAAFKNVAGIANLPMKAPVMQVLMENCIVSKYLKQFVPDRSVCFVEEGQKFYIVLEDGQKIEVPEDVNKALKATVSDVKHWAGYLTEDGEHVIDLLKPAPGPHFYVNLLIGNRLGFKRTLQTTPKSVVDRFGRGSFRSHAATQVLATRFDMRQEENGFPANRQFYLYEDGKQIFYSALIDDNIVEATCKHSCNRTVIKYKTACNLEITRTIFLVPHKKGFPLATELQRIEIKNASDKARNLSITYTGMFGTGAVHAIFEDVTYTNVIMQSAALYNDKGEFIGITPDYYPEEFKQDTRFVTMIVRNGDEKSFPQSFCTDYNDFVGTGTLEHPAGGCNLNNKLNRKGPGFFALGAPFTVEPGKTVIIDTFTGLSSSKDNENYSDAVMLRELDNLLRYFEKSESVEETLNEIINFHENYGKYFQFNTGNKLFDSGFNRNLAFQVLYQTFMSRSFGQTQKGYREIGFREIQDLFASMYYFINIGYQDFVKELLFEWTANVYKMGYANHNFYWVGKQPGLYSDDSLWLLQAYYRYIIYTKDTSVLNEEVPVADGNNEKRAVRETLKAIIQYSACISVGDHGLPLLDLADWNDCLKIASNSIDGATKEKLYYEQLKKTNGKYGDRFMSDYSESVMNAFLLKLAIDHLAEIATLDNDTQLAQQMSELSKEVTDRIQKHAWKENFFARVLINRYKDGSYTYLGAKGDKLSADPNIDGVYFLNSFAWSVLSDVATDEQIAIMVDVIKKHLLTPYGLRLVTPADLNKIANDTATGHYFFGDRENGAVFKHASMMAVAALIKAAKKVKDNELAKEMARIAYFMIDLVLPYKNLENPFQVAGNPRICTQYINTDTGENIGPLLSGTATWLNLNLISLAGIEYTRDGISFNPILREEETQLNFTLKAPKCSYKFSITKPVGFARMESSEYELFVDGQKIDNTVIPMYTDEKEHIVTLKFK
Km [3]: 24 ± 13 mM
kcat [3]: 15 ± 6.3 s⁻¹
kcat/Km [3]: 630 M⁻¹ s⁻¹

From publication PMC5667895, “Cellodextrin phosphorylase from Ruminiclostridium thermocellum: X-ray crystal structure and substrate specificity analysis” (Carbohydrate Research, 2017)
